Values joined by “and” are separate entries in the source; they are usually repeats but may differ in a detail not shown here. Equal values may be shown once. Read-outs that look alike come from different tables or passages of the source. Values belong to the compound of their own block, whether it stands above or below them.
Experiment: UV spectrum: absorption maxima, molar extinction coefficient and K value
Format: physicochemical
Conditions: for εM: in M-1·cm-1 (unit assumed); for UV absorption peaks: does not depend on the solvent nature and pH values

Compound: CC(C)c1ccc(C(=O)CC(=O)c2ccccc2)cc1 [4-isopropyl dibenzoyl methane, 1-p-cumenyl-3-phenylpropane-1,3-dione]
Max ads. (Solvent system Ethanol): 345

Compound: CCOC(=O)c1ccc(N(CC(C)O)CC(C)O)cc1 (stereo not shown) [Ethyl dihydroxypropyl PABA, Ethyl-4-bis(2-hydroxypropyl)amino benzoic acid]
K value: 119
Max ads.: 311
εM (Molar extinction coefficient): 27,000

Compound: CCCCC(CC)COC(=O)c1ccc(N(C)C)cc1 (stereo not shown) [Octyl dimethyl PABA, 2-ethylbexyl p-dimethylaminobenzoate]
Max ads. (Solvent system Ethanol): 311

Compound: CCCCC(CC)COC(=O)C=Cc1ccc(OC)cc1 (stereo not shown) [Octyl methoxycinnamate, 2-ethylhexyl-p-methoxycinnamate]
Max ads. (Solvent system Ethanol): 311

Compound: Nc1ccc(C(=O)O)cc1 [PABA, 4-amino benzoic acid]
Max ads. (Solvent system Ethanol): 283

Compound: Diethanolamine methoxy hydroxycinnamate [DEA methoxycinnamate]
K value: 79

The next lines start with the values.

εM (at 216 nm): 19,836
εM (at 305 nm): 28,044
εM (at 309 nm): 27,816
UV absorption peaks: 216 nm and 305 nm and 309 nm
UV absorption peaks (listed as resveratrol): 305 nm and 309 nm
Compound: 3,4,5-trihydroxystilbene [Resveratrol]

Max ads. (Solvent system Ethanol): 300
Compound: Cc1ccc(C=C2C(=O)C3(C)CCC2C3(C)C)cc1 (stereo not shown) [3-(4-methylbenzylidene)-camphor, 3-(4-methylbenzylidene)-bornan-2-one]

Max ads. (Solvent system Ethanol): 358
Compound: COc1ccc(C(=O)CC(=O)c2ccc(C(C)(C)C)cc2)cc1 [Butyl methoxy dibenzoyl methane, 4-t-butyl-4′-methoxydibenzoyl methane]

Max ads. (Solvent system Ethanol): 297
Compound: Nc1ccc(C(=O)OCC(O)CO)cc1 (stereo not shown) [Glyceryl PABA, 1,2,3-propanetriol,]

Max ads. (Solvent system Ethanol): 306
Compound: CC1CC(OC(=O)c2ccccc2O)CC(C)(C)C1 (stereo not shown) [Homosalate, 3,3,5-trimethyl cyclohexyl-2-h drox benzoate]

Max ads. (0,1 N NaOH): 305
Compound: O=S(=O)(O)c1ccc2nc(-c3ccccc3)[nH]c2c1 [Novantisol, 2-phenyl-benzimidazole-5-sulphonic acid]

Max ads. (Solvent system Ethanol): 307
Compound: CCCCC(CC)COC(=O)c1ccccc1O (stereo not shown) [Octyl salicylate, 2-ethylhexyl salicylate]

Reference: US20040009197A1 (priority 2000, published 2004)
